Experimental data: ChEMBL document CHEMBL1201861, “Genomics of Drug Sensitity in Cancer screening data, Wellcome Trust Sanger Institute”
pIC50: −log10 of the molar value.

Key:
Assay in all cases: cells
Settings in all cases: Homo sapiens
[1] = test system: MMAC-SF; type: functional, cell-based;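 further: growth inhibition of human MMAC-SF cells, read out with a cell viability assay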
Description: SANGER: Inhibition of human MMAC-SF cell growth in a cell viability assay.

[2] = test system: Ramos-2G6-4C10; type: functional, cell-based;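 further: growth inhibition of the cell line, measured by a cell viability read-out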
Description: SANGER: Inhibition of human Ramos-2G6-4C10 cell growth in a cell viability assay.

[3] = test system: ETK-1; type: functional, cell-based;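 further: growth inhibition of human ETK-1 cells, read out with a cell viability assay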
Description: SANGER: Inhibition of human ETK-1 cell growth in a cell viability assay.

[4] = test system: SNU-C2B; type: functional, cell-based;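 further: cell viability readout used to measure compound-driven suppression of SNU-C2B cell proliferation, IC50 marking half-maximal growth inhibition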
Description: SANGER: Inhibition of human SNU-C2B cell growth in a cell viability assay.

[5] = test system: TE-6; type: functional, cell-based;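 further: growth inhibition of TE-6 cells, read out with a cell viability assay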
Description: SANGER: Inhibition of human TE-6 cell growth in a cell viability assay.

[6] = test system: SHP77; type: functional, cell-based, SHP-77;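 further: growth inhibition of human SHP-77 cells measured by a cell viability assay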
Description: SANGER: Inhibition of human SHP-77 cell growth in a cell viability assay.

[7] = test system: JVM-3; type: functional, cell-based;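 further: growth inhibition of human JVM-3 cells, read out with a cell viability assay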
Description: SANGER: Inhibition of human JVM-3 cell growth in a cell viability assay.

[8] = test system: ES1; type: functional, cell-based;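 further: growth inhibition of ES1 cells, read out with a cell viability assay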
Description: SANGER: Inhibition of human ES1 cell growth in a cell viability assay.

[9] = test system: NCI-H226; type: functional, cell-based;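 further: cell viability read-out used to gauge growth inhibition of the cells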
Description: SANGER: Inhibition of human NCI-H226 cell growth in a cell viability assay.

[10] = test system: BB30-HNC; type: functional, cell-based;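 further: growth inhibition of the cultured cell line, read out by a cell viability assay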
Description: SANGER: Inhibition of human BB30-HNC cell growth in a cell viability assay.

[11] = test system: SNB-75; type: functional, cell-based;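 further: cell viability assay measuring growth inhibition of human SNB-75 cells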
Description: SANGER: Inhibition of human SNB75 cell growth in a cell viability assay.

[12] = test system: LB1047-RCC; type: functional, cell-based;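 further: inhibition of cell growth, determined with a cell viability assay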
Description: SANGER: Inhibition of human LB1047-RCC cell growth in a cell viability assay.

[13] = test system: COLO-829; type: functional, cell-based
Description: SANGER: Inhibition of human COLO-829 cell growth in a cell viability assay.

[14] = test system: QIMR-WIL; type: functional, cell-based;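 further: growth inhibition of QIMR-WIL cells, read out with a cell viability assay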
Description: SANGER: Inhibition of human QIMR-WIL cell growth in a cell viability assay.

[15] = test system: UACC-257; type: functional, cell-based
Description: SANGER: Inhibition of human UACC-257 cell growth in a cell viability assay.

[16] = test system: HT; type: functional, cell-based
Description: SANGER: Inhibition of human HT cell growth in a cell viability assay.

[17] = test system: A4-Fuk; type: functional, cell-based;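 further: growth inhibition of A4-Fuk cells, read out by a cell viability assay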
Description: SANGER: Inhibition of human A4-Fuk cell growth in a cell viability assay.

[18] = test system: IA-LM; type: functional, cell-based;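 further: cell viability assay measuring growth inhibition of human IA-LM cells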
Description: SANGER: Inhibition of human IA-LM cell growth in a cell viability assay.

[19] = test system: NB6; type: functional, cell-based;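 further: growth inhibition of NB6 cells, read out by a cell viability assay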
Description: SANGER: Inhibition of human NB6 cell growth in a cell viability assay.

[20] = test system: KM-H2; type: functional, cell-based;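 further: growth inhibition of KM-H2 cells, read out by a cell viability assay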
Description: SANGER: Inhibition of human KM-H2 cell growth in a cell viability assay.

[21] = test system: LB831-BLC; type: functional, cell-based;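 further: growth inhibition of LB831-BLC cells, read out with a cell viability assay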
Description: SANGER: Inhibition of human LB831-BLC cell growth in a cell viability assay.

[22] = test system: DOHH-2; type: functional, cell-based;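 further: growth inhibition of human DOHH-2 cells, read out with a cell viability assay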
Description: SANGER: Inhibition of human DOHH-2 cell growth in a cell viability assay.

[23] = test system: ES3; type: functional, cell-based;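 further: growth inhibition of ES3 cells, read out with a cell viability assay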
Description: SANGER: Inhibition of human ES3 cell growth in a cell viability assay.

[24] = test system: BB65-RCC; type: functional, cell-based;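 further: growth inhibition of the cell line, measured with a cell viability assay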
Description: SANGER: Inhibition of human BB65-RCC cell growth in a cell viability assay.

[25] = test system: MHH-PREB-1; type: functional, cell-based;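 further: cell viability assay measuring inhibition of proliferation of human MHH-PREB-1 cells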
Description: SANGER: Inhibition of human MHH-PREB-1 cell growth in a cell viability assay.

[26] = test system: ACN; type: functional, cell-based;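 further: growth inhibition of the human ACN cell line, read out via cell viability testing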
Description: SANGER: Inhibition of human ACN cell growth in a cell viability assay.

[27] = test system: NCI-H1395; type: functional, cell-based;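 further: cell viability assay read-out quantifying reduced proliferation of human NCI-H1395 cells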
Description: SANGER: Inhibition of human NCI-H1395 cell growth in a cell viability assay.

[28] = test system: LS-411N; type: functional, cell-based
[29] = test system: SF-126; type: functional, cell-based;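 further: growth inhibition of human SF126 cells, read out with a cell viability assay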
Description: SANGER: Inhibition of human SF126 cell growth in a cell viability assay.

[30] = test system: COLO-824; type: functional, cell-based
Description: SANGER: Inhibition of human COLO-824 cell growth in a cell viability assay.

[31] = test system: RPMI-8866; type: functional, cell-based
Description: SANGER: Inhibition of human RPMI-8866 cell growth in a cell viability assay.

[32] = test system: GT3TKB; type: functional, cell-based;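 further: growth inhibition of the cell line, read out with a cell viability assay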
Description: SANGER: Inhibition of human GT3TKB cell growth in a cell viability assay.

[33] = test system: A388; type: functional, cell-based;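 further: growth inhibition of human A388 cells, read out with a cell viability assay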
Description: SANGER: Inhibition of human A388 cell growth in a cell viability assay.

[34] = test system: L-428; type: functional, cell-based
Description: SANGER: Inhibition of human L-428 cell growth in a cell viability assay.

[35] = test system: TGBC24TKB; type: functional, cell-based;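 further: growth inhibition of human TGBC24TKB cells, read out with a cell viability assay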
Description: SANGER: Inhibition of human TGBC24TKB cell growth in a cell viability assay.

[36] = test system: TK-10; type: functional, cell-based;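 further: growth inhibition of TK-10 cells, read out in a cell viability assay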
Description: SANGER: Inhibition of human TK10 cell growth in a cell viability assay.

[37] = test system: SK-PN-DW; type: functional, cell-based;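 further: growth inhibition measured with a viability assay on these cells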
Description: SANGER: Inhibition of human SK-PN-DW cell growth in a cell viability assay.

[38] = test system: NB69; type: functional, cell-based;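 further: growth inhibition of NB69 cells, determined by a cell viability assay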
Description: SANGER: Inhibition of human NB69 cell growth in a cell viability assay.

[39] = test system: CCRF-CEM; type: functional, cell-based;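 further: inhibition of CCRF-CEM cell growth, measured by a cell viability assay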
Description: SANGER: Inhibition of human CCRF-CEM cell growth in a cell viability assay.

[40] = test system: KM12; type: functional, cell-based;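 further: KM12 cell growth inhibition, read out with a cell viability assay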
Description: SANGER: Inhibition of human KM12 cell growth in a cell viability assay.

[41] = test system: HuTu80; type: functional, cell-based, HUTU-80;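 further: growth inhibition of HuTu80 human cells, determined with a cell viability readout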
Description: SANGER: Inhibition of human HUTU-80 cell growth in a cell viability assay.

[42] = test system: SW 954; type: functional, cell-based;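 further: growth inhibition of SW954 human cancer cells, read out as cell viability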
Description: SANGER: Inhibition of human SW954 cell growth in a cell viability assay.

[43] = test system: KNS-81-FD; type: functional, cell-based;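 further: growth inhibition of KNS-81-FD cells, read out with a cell viability assay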
Description: SANGER: Inhibition of human KNS-81-FD cell growth in a cell viability assay.

[44] = test system: HCE-4; type: functional, cell-based;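 further: cell viability assay measuring inhibition of growth in the human HCE-4 cell line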
Description: SANGER: Inhibition of human HCE-4 cell growth in a cell viability assay.

[45] = test system: HCE-T; type: functional, cell-based;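 further: cell viability assay read-out, reporting inhibition of HCE-T cell growth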
Description: SANGER: Inhibition of human HCE-T cell growth in a cell viability assay.

[46] = test system: C2BBe1; type: functional, cell-based;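 further: growth inhibition of C2BBe1 cells, read out through a viability assay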
Description: SANGER: Inhibition of human C2BBe1 cell growth in a cell viability assay.

[47] = test system: LOX IMVI; type: functional, cell-based
Description: SANGER: Inhibition of human LOXIMVI cell growth in a cell viability assay.

[48] = test system: TE-10; type: functional, cell-based;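 further: growth inhibition of TE-10 cells, measured by a cell viability assay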
Description: SANGER: Inhibition of human TE-10 cell growth in a cell viability assay.

[49] = test system: OCI-AML2; type: functional, cell-based;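 further: growth inhibition of OCI-AML2 cells, read out with a cell viability assay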
Description: SANGER: Inhibition of human OCI-AML2 cell growth in a cell viability assay.

[50] = test system: NB5; type: functional, cell-based;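 further: growth inhibition of NB5 cells, read out as cell viability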
Description: SANGER: Inhibition of human NB5 cell growth in a cell viability assay.

[51] = test system: ES4; type: functional, cell-based;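 further: growth inhibition of human ES4 cells, read out by a cell viability assay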
Description: SANGER: Inhibition of human ES4 cell growth in a cell viability assay.

[52] = test system: ML-2; type: functional, cell-based;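 further: growth inhibition of ML-2 cells, measured with a cell viability readout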
Description: SANGER: Inhibition of human ML-2 cell growth in a cell viability assay.

[53] = test system: COLO-668; type: functional, cell-based
Description: SANGER: Inhibition of human COLO-668 cell growth in a cell viability assay.

[54] = test system: 697; type: functional, cell-based
Description: SANGER: Inhibition of human 697 cell growth in a cell viability assay.

[55] = test system: LS-1034; type: functional, cell-based
Description: SANGER: Inhibition of human LS-1034 cell growth in a cell viability assay.

[56] = test system: A101D; type: functional, cell-based;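 further: growth inhibition of the cell line, measured with a viability assay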
Description: SANGER: Inhibition of human A101D cell growth in a cell viability assay.

[57] = test system: ONS-76; type: functional, cell-based;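 further: growth inhibition of human ONS-76 cells, read out with a cell viability assay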
Description: SANGER: Inhibition of human ONS-76 cell growth in a cell viability assay.

[58] = test system: U-87 MG; type: functional, cell-based, U-87MG ATCC;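 further: growth inhibition of the cells measured with a viability assay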
Description: SANGER: Inhibition of human U-87-MG cell growth in a cell viability assay.

[59] = test system: DMS-114; type: functional, cell-based
[60] = test system: K562; type: functional, cell-based
Description: SANGER: Inhibition of human K-562 cell growth in a cell viability assay.

[61] = test system: GI-1; type: functional, cell-based;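 further: growth inhibition of human GI-1 cells, measured with a cell viability readout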
Description: SANGER: Inhibition of human GI-1 cell growth in a cell viability assay.

[62] = test system: MFH-ino; type: functional, cell-based
Description: SANGER: Inhibition of human MFH-ino cell growth in a cell viability assay.

[63] = test system: DU-4475; type: functional, cell-based
Description: SANGER: Inhibition of human DU-4475 cell growth in a cell viability assay.

[64] = test system: LXF-289 cell line; type: functional, cell-based
Description: SANGER: Inhibition of human LXF-289 cell growth in a cell viability assay.

Measured: pIC50

NC(=O)c1ncn([C@@H]2O[C@H](COP(=O)(O)O)[C@@H](O)[C@H]2O)c1N
3.27: [3]
2.80: [59]
3.01: [38]
3.32: [54]
3.03: [47]
2.88: [22]
2.72: [26]
3.31: [14]
3.53: [17]
2.94: [49]
3.15: [45]
2.95: [30]
2.93: [20]
3.62: [2]
2.96: [23]
3.38: [25] | [42]
2.92: [24]
2.82: [48]
3.22: [46]
3.07: [18]
2.86: [11]
3.67: [10]
3.13: [35] | [37]
3.00: [16]
2.75: [51]
2.77: [44]
not listed: [61] | [62] | [63] | [64]
< 2.70: all other assays above

CCn1c(-c2nonc2N)nc2cnc(Oc3cccc(NC(=O)c4ccc(OCCN5CCOCC5)cc4)c3)cc21 [GSK-269962A]
6.19: [62]
6.23: [19]
5.79: [32]
5.73: [56]
5.87: [2]
6.52: [54]
6.31: [14]
8.28: [61]
not listed: [4] | [18] | [35] | [44]
< 5.60: all other assays above
